Laboratory results published in PubChem BioAssay (NCI).
Where “and” joins values, the source holds several entries; their conditions need not be identical. Equal entries are not always repeated.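 Protocol summary: plate cells (96-well), add compound at 5 concentrations, incubate 48 h, interpolate endpoints linearly. Abbreviation: GI50, concentration required for 50% inhibition of growth. TGI is the concentration that stops growth completely.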

How the values were obtained:
Experiment in all cases: DTP human tumour cell line panel, 48 h
786-0 renal = tested on: 786-0 renal
HL-60(TB) leukemia = tested on: HL-60(TB) leukemia
HT29 colon = tested on: HT29 colon
NCI-H226 lung = tested on: NCI-H226 lung
OVCAR-5 ovarian = tested on: OVCAR-5 ovarian
SF-539 CNS = tested on: SF-539 CNS
SR leukemia = tested on: SR leukemia
UACC-257 melanoma = tested on: UACC-257 melanoma

| Structure (SMILES) | TGI (786-0 renal) | TGI (HL-60(TB) leukemia) [µM] | TGI (HT29 colon) | TGI (NCI-H226 lung) [µM] | TGI (OVCAR-5 ovarian) | TGI (SF-539 CNS) | TGI (SR leukemia) [µM] | TGI (UACC-257 melanoma) [µM] | GI50 (786-0 renal) [µM] | GI50 (HL-60(TB) leukemia) [µM] | GI50 (NCI-H226 lung) [µM] | GI50 (OVCAR-5 ovarian) [µM] | GI50 (SF-539 CNS) [µM] | GI50 (SR leukemia) [µM] | GI50 (UACC-257 melanoma) [µM] | GI50 (HT29 colon) [µM] |
| --- | --- | --- | --- | --- | --- | --- | --- | --- | --- | --- | --- | --- | --- | --- | --- | --- |
| CC(=O)N1c2ccccc2C23CCN(C)CC4C(C)OCC(C4CC2=O)C13 (stereo not drawn) | > 100 µM | > 100 | > 100 µM | > 100 | > 100 µM | > 100 µM | > 100 | > 100 |  |  |  |  |  |  |  |  |
| O=[N+]([O-])c1ccc(Br)c([N+](=O)[O-])c1 | 10.9 µM | 3.54 |  | 23.5 | 3.5 µM | 5.01 µM | 5.64 | 3.37 | 3.35 | 1.41 | 8.36 | 1.77 | 2.06 | 1.56 | 1.86 |  |
| COc1cc(C(=O)c2ccc3c(c2)OCO3)cc(OC)c1OC | > 100 µM | 9.02 | 15.5 µM | > 100 | > 100 µM | 7.52 µM | > 87.7 | > 100 | 10.5 | 0.609 | 8.76 | 8.96 | 1.95 | 0.348 | > 100 | 0.502 |
| Oc1ccccc1-c1nn(CNc2cccc(Cl)c2)c(=S)o1 | > 100 µM |  | > 100 µM | > 100 | > 100 µM | > 100 µM | 49.4 | > 100 | 67.3 |  | 54.2 | > 100 | 27.6 | 15.1 | > 100 | 18.5 |
| C1=Cc2ccccc2Nc2ccccc21 | > 100 µM | > 100 | > 100 µM | > 100 | > 100 µM | > 100 µM | > 100 | > 100 | > 100 | > 100 | > 100 | > 100 | > 100 | > 100 | > 100 | > 100 |
| CN(C)c1ccc(N2Cc3ccccc3OC3=C2C(=O)c2c(O)ccc(O)c2C3=O)cn1 | 0.423 µM | 0.538 | 0.578 µM | 3.66 | 1.56 µM | 0.602 µM | > 100 | 1.14 | 0.204 | 0.147 | 0.854 | 0.51 | 0.225 | 0.127 | 0.311 | 0.232 |
| CCN(CC)CCCC(C)Nc1cnc(C(=O)Nc2ccc(Cl)c3cccnc23)cn1 (stereo not drawn) | 2.87 µM | 3.54 | 3.26 µM | 20.7 | 3.6 µM | 3.12 µM | 4.12 | 7.96 | 1.4 | 1.77 | 4.73 | 1.83 | 1.71 | 1.18 | 2.91 | 1.33 |
| CCOc1cccc(/C=N/NC(=O)c2ccc(Nc3ccnc(C(F)(F)F)c3)cc2)c1O | > 94.3 µM | 5.47 | > 73.5 µM | 22.5 | > 100 µM | 11.6 µM | > 100 | > 21.1 | 0.951 | 1.33 | 2.08 | 7.18 | 1.1 | 0.236 | 0.728 | 4.38 |
| COc1ccc2c(c1)C(=O)/C(=C/c1cccc(OCC(=O)Nc3nc4c(s3)CCCC4)c1)O2 | 0.346 µM | 0.681 | 1.8 µM | 42.1 | 3.61 µM | 2.69 µM | 0.351 | 24.4 | 0.15 | 0.241 | 11.3 | 1.69 | 1.32 | 0.156 | 11.2 | 0.642 |
| O=c1c2cccc(Cl)c2sc2c(NCCCNCCO)nc3ccccc3c12 | 3.52 µM | 5.49 | 3.37 µM | 23.9 | 10.1 µM | 3.32 µM | 5.97 | 28 | 1.69 | 2.4 | 6.24 | 2.8 | 1.67 | 1.6 | 10.4 | 1.68 |
| Cc1nn(-c2nc3ccccc3s2)c(C)c1Oc1ccccc1O | 27.7 µM | 18.1 | 20.3 µM | 26 | 25.7 µM | 20.1 µM | 2.05 | 14.7 | 14.6 | 4.02 | 9.07 | 12.5 | 2.52 | 0.536 | 3.64 | 4.95 |
| CC1=C[C@H]2c3c(c(O)c(O)c4oc5c(C)cccc5c(=O)c34)[C@H](c3cc(O)c(O)c4oc5c(C)cccc5c(=O)c34)[C@H]2C(C)(C)C1 | 9.29 µM | 9.23 | 8.92 µM | 5.99 | 10.6 µM | 3.65 µM | > 100 | 8.34 | 2.85 | 3 | 2.21 | 2.65 | 1.67 | 0.72 | 2.54 | 2.12 |
| N#C/C(=C\c1ccc(-c2ccc(Cl)cc2)o1)C(=O)Nc1ncc(Cc2ccc(Cl)cc2)s1 | 3.47 µM | > 100 | > 100 µM | 5.41 | > 100 µM | 3.84 µM | 6.48 | > 100 | 1.77 | > 100 | 2.08 | 3.73 | 1.66 | 0.772 | 4.06 | 3.42 |
| O=C(Nc1ccccc1O)c1cccc(NC2=C(Cl)C(=O)N(Cc3ccccc3)C2=O)c1 | 6.78 µM | 8.5 | > 100 µM | 11.5 | 27.7 µM | 25.4 µM | 2.57 | 16.6 | 2.3 | 1.5 | 3.7 | 13.4 | 10.7 | 0.583 | 4.44 | 7.05 |
| COc1cc2nc(-c3cnc(N(C)C)nc3)nc(NC3CCN(Cc4ccccc4)CC3)c2cc1OC | 3.81 µM | 3.75 | 2.54 µM | 3.92 | 3.46 µM | 3.25 µM | 0.938 | 3.66 | 1.8 | 1.51 | 1.73 | 1.78 | 1.72 | 0.273 | 1.79 | 1.08 |
| CC1CC2(C)ON=C(c3ccccc3)N2c2ccccc2S1 (stereo not drawn) |  |  | 80 µM |  |  | 51.6 µM |  |  | 34.4 | 23.5 |  | 34.3 | 22.4 | 34.6 | 36.8 | 27.9 |
| CC1=CC(=NC(=O)CBr)C=C/C1=N\S(=O)(=O)c1ccccc1 | 10.8 µM | 7.94 | 6.7 µM | 40.2 | 6.86 µM | 12 µM | 18.6 |  | 3.37 | 2.78 | 15.1 | 2.65 | 3.49 | 3.41 |  | 2.58 |
| COc1ccc2c(c1)c(-c1ccc(-c3cn(S(=O)(=O)c4ccccc4)c4ccc(OC)cc34)s1)cn2S(=O)(=O)c1ccccc1 | > 100 µM | > 100 | > 100 µM | > 100 | > 100 µM | > 100 µM | > 100 |  | > 100 | > 100 | > 100 | > 100 | > 100 | > 100 |  | > 100 |
| CC1=C(C(=O)Nc2ccc(F)c(Cl)c2)C(c2ccccc2Cl)NC(=S)N1 (stereo not drawn) | > 50 µM | > 50 |  |  | > 50 µM | > 50 µM | > 50 | 49.7 | 30 | 25.6 |  | > 50 | > 50 | 23.1 | 19.7 |  |
| Cc1cc2c(cc1Cl)SC1=CC(=O)N(c3ccccc3)C1=NS2(=O)=O | 71.6 µM | 63.8 | 67.8 µM | > 100 | > 100 µM |  |  | > 100 | 27.5 | 23.8 | 66.7 | > 100 |  |  | 51.5 | 21.5 |
| O=c1cc(-c2cccc(C(F)(F)F)c2)[nH]c2cc3c(cc12)OCO3 | 7.91 µM and 27 µM | 0.705 | 40.8 µM and 13 µM |  | 50 µM and > 100 µM | 2.53 µM and 6.6 µM | > 100 |  | 0.902 |  |  | > 100 | 0.483 |  |  | 3.11 |
| COc1ccc(-c2[nH]c3ccccc3c2C=C(C#N)C#N)cc1 | > 32.1 µM | 0.714 | > 100 µM | > 20.1 | > 100 µM | 0.795 µM |  | > 100 | 0.715 | 0.271 | 0.873 | 2.35 | 0.262 |  | > 20.6 | 0.371 |
| CCOC(C)C(/C=N/NC(N)=S)=NNC(N)=S (stereo not drawn) | > 100 µM | > 100 |  |  | > 100 µM | > 100 µM | > 100 | > 100 |  |  |  |  |  |  |  |  |
| C/C=C(\C)C(=O)N[C@H]1CC[C@]2(C)C3CC[C@@]4(C)C(CC[C@@H]4C(C)N(C)C)C3CCC2[C@H]1OC(C)=O (stereo partly drawn) | 2.95 µM | 4.52 | 1.34 µM | 7.53 | 5.65 µM | 2.53 µM |  | 4.16 | 1.54 | 1.88 | 2.38 | 2.06 | 1.16 |  | 2.12 | 0.362 |
